Results as given in US20080171764A1, “METHODS FOR PREVENTING, MANAGING, AND REVERSING DISEASE CAUSED BY INFLAMMATION MEDIATED VASCULAR LESIONS” (priority 2007, published 2008).

How the values were obtained:
apoE−/− mice [1] = assay: atherosclerosis quantitation, en face surface lesion analysis (Sudan IV), 4-week study; assay type: in vivo; conditions: 1.0 mg/kg ip once daily, vehicle 12.9±1.8%, P<0.0005
Text: ApoE^−/− mice (backcrossed ten times to the C57BL/6 background) were purchased from The Jackson Laboratory. The mice were kept on a twelve-hour light/twelve-hour dark regimen upon arrival. All animal experiments were approved by the IACUC of the Consumer & Personal Product Worldwide, in accordance with AAALAC guidelines. Eight week old, male apoE^−/− mice were fed a normal mouse-chow diet (RP5001; PMI Feeds Inc., St. Louis, Mo.) and acclimated for one week before switching to a pro-atherogenic high fat, high cholesterol, diet (“Western diet”, 21% fat, 0.2% cholesterol, diet No. 88137, Harlan-Teklad, Madison, Wis.) for four weeks. […]
As stated above, the mice were sacrificed by CO2 inhalation and bled from the abdominal vena cava. […] Atherosclerosis quantitation was assessed using two independent methods: “en face” surface lesion analysis and aortic root analysis. […] The extent of atherosclerosis is expressed as the percent of the aortic surface area covered by lesions. Aortic root analysis provided a second method verifying atherosclerosis quantitation. Briefly, alternate 8-μm frozen sections covering 300 μm of the proximal aorta, starting at the aortic sinus, were stained for atherosclerotic lesions with oil red O. Images of oil red O-stained aortic root sections were captured and analyzed using Image-Pro 6.0 analysis software. […]

apoE−/− mice [2] = assay: health status, body weight and re-suturing incidence post mini-pump surgery; assay type: in vivo
Text: (§1) ApoE^−/− mice (backcrossed ten times to the C57BL/6 background) were purchased from The Jackson Laboratory. The mice were kept on a twelve-hour light/twelve-hour dark regimen upon arrival. All animal experiments were approved by the IACUC of the Consumer & Personal Product Worldwide, in accordance with AAALAC guidelines. Eight week old, male apoE^−/− mice were fed a normal mouse-chow diet (RP5001; PMI Feeds Inc., St. Louis, Mo.) and acclimated for one week before switching to a pro-atherogenic high fat, high cholesterol, diet (“Western diet”, 21% fat, 0.2% cholesterol, diet No. 88137, Harlan-Teklad, Madison, Wis.) for four weeks.
(§2) Upon initiation of the pro-atherogenic diet, Alzet osmotic mini-pumps (Model 2004; ALZA Scientific Products, Mountain View, Calif.) were implanted into the apoE^−/− mice subcutaneously. The mini-pumps were loaded with angII (EMD Biosciences, San Diego, Calif.) at the delivery rate of 1,000 ng/min/kg for twenty-eight days. The mice were anesthetized using isoflurane for the implantation of the mini-pumps. Small incisions in the lower back of the neck were made and the mini-pumps were inserted into the subcutaneous space of the mice. The incisions were then closed using sterile staplers. Triple antibiotic ointment was applied to each incision post surgery. The mice on the high fat, high cholesterol diet were sacrificed by CO2 inhalation twenty-eight days post mini-pump implantation as is explained in detail subsequently.
(§3) Upon initiation of the pro-atherogenic diet and osmotic mini-pump implantation, mice were randomly assigned to four groups; namely, vehicle control, rapamycin or sirolimus 0.5 mg/kg, sirolimus 1.0 mg/kg and sirolimus 4.0 mg/kg body weight. The defined amount of sirolimus was dissolved in ethanol, brought up in a vehicle comprising 0.2 percent Sodium carboxymethylcellulose and 0.25 percent tween 80) and administrated to mice (i.p., daily).
The data is depicted as re-suturing incedince post surgery per group size. A clear increase of the suture index is observed in response to sirolimus administration in a dose dependent manner.

[3] = plasma lipids (total cholesterol, triglycerides, LDL and HDL cholesterol); assay type: in vivo, mice
Text: as §1
Upon initiation of the pro-atherogenic diet, Alzet osmotic mini-pumps (Model 2004; ALZA Scientific Products, Mountain View, Calif.) were implanted into the apoE^−/− mice subcutaneously. The mini-pumps were loaded with angII (EMD Biosciences, San Diego, Calif.) at the delivery rate of 1,000 ng/min/kg for twenty-eight days. The mice were anesthetized using isoflurane for the implantation of the mini-pumps. […]
Plasma triglyceride and total cholesterol levels were determined via an automated enzymatic technique (Equal Diagnostic Inc., Exton, Pa.). […] Aliquots of mouse plasma (100 μl) were injected onto the column, separated with a buffer containing 0.15 M NaCl, 0.01 M Na2HPO4, and 0.1 mM EDTA (pH 7.5) at a flow rate of 0.5 mL/min, and analyzed for lipids.

apoE−/− mice [4] = assay: abdominal aortic adventitia lesion / AAA analysis (incidence, severity, diameter); assay type: in vivo
Text: as §1
as §2, with “subsequently. […]” for “subsequently.”
The abdominal aorta was subjected to abdominal aortic adventitia lesion analysis. […] Classification of the adventitia lesions was determined according to the scale based on the gross appearance of the aorta reported by Daugherty et al. Briefly, I: Dilated lumen in the supra-renal region of the aorta with no thrombus; II: Remodeled tissue in the supra-renal region that frequently contains thrombus; III: A pronounced bulbous form of type II that contains thrombus; IV: A form in which there are multiple adventitia lesions containing thrombus, some overlapping, in the suprarenal area of the aorta.

[5] = sirolimus whole blood pharmacokinetics in apoE-/- mice (LC-MS/MS); assay type: in vivo; conditions: i.p. daily, 0.5, 1.0 and 4.0 mg/kg
Protocol: as §3
Sirolimus was quantitated using liquid-liquid extraction and reverse-phase liquid chromatography mass spectrometry (LC-MS/MS). Briefly, 100 μl of mouse whole blood sample underwent protein precipitation with 5 percent Methanol/Zinc sulfate solution containing the internal standard ascomycin. After centrifugation of the resulting solution, the liquid mixture proceeded with liquid-liquid extraction with 1-chlorobutane. The combined organic extract was then blown down to dryness and reconstituted with 50:50 Methanol:20 mM ammonium acetate solution. The samples were analyzed on API-5000 using C18 reverse-phase chromatography in Multiple Reaction Monitoring (MRM) mode using atmospheric pressure chemical ionization (ApCI) approach. The calibration standard curve results for sirolimus in mouse whole blood were acceptable from 0.5 ng/ml to 10,000 ng/ml with correlation coefficient of 0.998. […]

apoE−/− mice [6] = assay: second study: established lesions, 8 weeks angII infusion and proatherogenic diet, en face analysis; assay type: in vivo; conditions: 1.0 mg/kg ip once daily for last 4 of 8 weeks; vehicle 37.6±2.7%, P<0.0001
Protocol: As stated above, the mice were sacrificed by CO2 inhalation and bled from the abdominal vena cava. The aortas were perfusion-fixed and post-fixed in 4 percent paraformaldehyde. Atherosclerosis quantitation was assessed using two independent methods: “en face” surface lesion analysis and aortic root analysis. The aortic arch and thoracic aorta (defined as above the last inter-costal artery) was subjected to “en face” analysis. Briefly, the aorta with major branches (left common carotid artery, right common carotid artery, left subclavian artery) was opened up. The lipid deposition in the inner aortic wall was stained in Sudan IV buffer. […] The extent of atherosclerosis is expressed as the percent of the aortic surface area covered by lesions. Aortic root analysis provided a second method verifying atherosclerosis quantitation. Briefly, alternate 8-μm frozen sections covering 300 μm of the proximal aorta, starting at the aortic sinus, were stained for atherosclerotic lesions with oil red O. Images of oil red O-stained aortic root sections were captured and analyzed using Image-Pro 6.0 analysis software. All samples were coded by one investigator and analyzed by another investigator who is completely blinded to the codes. […]

elevation of LDL cholesterol ([3]; all sirolimus treated mice vs vehicle control): > 60% | plasma triglyceride ([3]; regardless of the dosage employed): trend of elevated triglyceride | time of peak whole blood drug level post injection [5]: 1 h | whole blood drug level at 24 hours ([5]; 24 hours post injection): trace level
SMILES: CO[C@H]1C[C@@H]2CC[C@@H](C)[C@@](O)(O2)C(=O)C(=O)N2CCCC[C@H]2C(=O)O[C@H]([C@H](C)C[C@@H]2CC[C@@H](O)[C@H](OC)C2)CC(=O)[C@H](C)/C=C(\C)[C@@H](O)[C@@H](OC)C(=O)[C@H](C)C[C@H](C)/C=C/C=C/C=C/1C [sirolimus]
atherosclerotic plaque area (en face analysis) at 4 weeks (apoE−/− mice [1]): 3.1±0.4% | incidence of re-suturing post surgery for mini-pump implantation (wound healing) (apoE−/− mice [2]; 0.5, 1.0 and 4.0 mg/kg i.p. daily): increased incidence of re-suturing | body weight (apoE−/− mice [2]; all 3 sirolimus treated groups vs vehicle control): trend of decreased body weight | health status (apoE−/− mice [2]; apoE−/− mice, i.p. daily, 0.5, 1.0 and 4.0 mg/kg, 4 weeks): not overtly affected | incidence of abdominal aortic adventitia lesion (apoE−/− mice [4]; 1 of 22 mice receiving sirolimus, vehicle control 30 percent (3 of 10)): 4.5% | severity of AAA as determined by aortic diameter (apoE−/− mice [4]; vehicle 1.38±0.25 mm, P<0.005): 0.74±0.02 mm | incidence of AAA (apoE−/− mice [4]; vehicle 32%, P<0.005): 0% | atherosclerotic plaque area (en face analysis) of established lesions at 8 weeks (apoE−/− mice [6]): 18.4±2.3%
